Source: patent US10793566B2, “Bruton's tyrosine kinase inhibitors” (Zibo Biopolar Changsheng Pharmaceutical Co. Ltd., priority 2016, dated 2020)

What was measured:
[1] = target: LYN (Homo sapiens (Human), UniProt P07948); experiment: LYN kinase assay (HTRF); type: biochemical; settings: [ATP]=20 μM, LYN=0.12 nM
Procedure: Btk Kinase Assay and Other Kinases Assay Btk kinase activity was determined using a homogenous time resolved fluorescence (HTRF) methodology. Measurements were performed in a reaction volume of 15 μL using 384-well assay plates. Kinase enzyme, inhibitor, ATP and 1 μM peptide substrate were incubated in a reaction buffer compose of Hepes50 mM (pH7.0), NaN3 0.02%, BSA 0.01%, Orthocanadate 0.1 mM. After one hour, the kinase reaction was quenched by the addition of E t-labeled antibody and XL-665 in 1×Detection buffer containing 60 mM EDTA (Cisbio), and the mixture was allowed to incubate for one hour. The HTRF signal was measured on a multimode plate reader (EnVision Multilabel Reader, Perkin Elmer) with an excitation wavelength (λEx) of 330 nm and detection wavelengths (λEm) of 615 and 665 nm. Activity was determined by the ratio of the fluorescence at 665 nm to that at 615 nm. For each compound, enzyme activity as measured at various concentrations of compound, Negative control reactions were performed in the absence of inhibitor in two replicates and eight no enzyme controls were used to determine baseline fluorescence levels. IC50s were obtained according to the equation: […] For LYN assay, [ATP]=20 μM, LYN=0.12 n M. For LCK assay, [ATP]=20 μM, LCK=0.2 nM. For BLK assay, [ATP]=20 μM, BLK=0.6 n M.

[2] = test system: Ramos cells; experiment: Calcium flux assay, anti-IgM stimulated Ramos cells; type: cell-based; settings: Homo sapiens, IgM-induced calcium influx, read-out: Ramos Ca Flux
Procedure: Calcium flux fluorescence-based assays were performed in aFDSS7000EX (Hamamatsu Photonics) fluorometric imaging plate reader according to manufacturer instructions. Compounds to be assayed were dissolved in DMSO, diluted to appropriate concentrations in Ca^2+ buffer ranging from 0 to 10 μM (at a dilution factor of 0.1), added 5 μl (6 X) to each well (the final DMSO concentration was 0.1% in each well). Then 12.5 μL 2× dye loading solution (Fluo-4 NW Calcium Assay Kits, Invitrogen) was added per well of a 384-well plate. Afterwards, actively growing Ramos cells (ATCC) in RPM1640 medium supplemented with 10% FBS (Invitrogen) were washed and re-plated in assay buffer (from Fluo-4 NW Calcium Assay Kits, Invitrogen) to approximately 6.4×10^6/ml (80000 cells/12.5 μL in 384-well plates). The plates were incubated at 37° C. for 30 minutes, then at room temperature for an additional 30 minutes. The plates were now ready to be used in an experiment. Immediately after the transfer and a 10-s recording of baseline fluorescence, the compound treated cells were stimulated with a goat anti-human IgM antibody ([…]; Jackson Immuno Research) and read in a FDSS for 240 seconds. Difference between the signal and that at baseline, designated adjusted relative fluorescence unit, was calculated by using a custom Excel (Microsoft, Redmond, Wash.) template to determine IgM-induced calcium influx and its inhibition by compounds. The table below show the result.

Sequence of LYN (P07948 whole entry, species assumed): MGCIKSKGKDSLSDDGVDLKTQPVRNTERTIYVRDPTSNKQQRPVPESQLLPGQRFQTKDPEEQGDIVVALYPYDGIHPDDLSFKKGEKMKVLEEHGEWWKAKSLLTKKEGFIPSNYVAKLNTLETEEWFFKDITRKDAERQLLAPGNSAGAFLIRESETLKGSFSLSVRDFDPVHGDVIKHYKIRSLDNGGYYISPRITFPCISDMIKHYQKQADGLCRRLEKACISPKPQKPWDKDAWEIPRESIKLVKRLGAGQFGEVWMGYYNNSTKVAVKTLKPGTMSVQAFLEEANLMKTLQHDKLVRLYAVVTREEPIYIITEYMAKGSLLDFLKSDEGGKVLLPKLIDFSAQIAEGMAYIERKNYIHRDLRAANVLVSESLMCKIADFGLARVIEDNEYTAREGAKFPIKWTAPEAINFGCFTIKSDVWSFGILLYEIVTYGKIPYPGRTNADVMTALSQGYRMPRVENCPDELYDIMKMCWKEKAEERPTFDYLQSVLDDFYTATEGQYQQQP

`C=CC(=O)N1CC[C@@H](n2nc(-c3ccc(Oc4ccccc4)cc3)c3cnccc32)C1` [Example 1, (R)-1-(3-(3-(4-phenoxyphenyl)-1H-pyrazolo[4,3-c]pyridin-1-yl)pyrrolidin-1-yl)prop-2-en-1-one] was tested, and the IC50 [1] was ≥ 10 µM and the IC50 [2] was 0.01 to 0.1 µM.
